Measured values as given in patent publication US20140364431A1, “Quinoline and cinnoline derivatives and their applications” (Shenyang Pharmaceutical University, priority 2011, published 2014).
Values after ≈ are worked out from the molar mass of the structure shown. Read-outs that look alike come from different tables or passages of the source.

Legend:
[1] = tested on: H460 (human lung cancer cell); experiment: In vitro anti-tumor cellular activity (MTT), H460; assay type: cell-based; settings: for IC50: Homo sapiens, read-out: H460 IC50
[2] = tested on: U87MG (Human malignant glioblastoma cells); experiment: In vitro anti-tumor cellular activity (MTT), U87MG; assay type: cell-based; settings: for IC50: Homo sapiens, U-87 MG, read-out: U87MG IC50
[3] = tested on: HT-29 (colon cancer cell); experiment: In vitro anti-tumor cellular activity (MTT), HT-29; assay type: cell-based, human; settings: for IC50: Homo sapiens, read-out: HT-29 IC50
[4] = tested on: MKN-45 (human gastric carcinoma cell); experiment: In vitro anti-tumor cellular activity (MTT), MKN-45; assay type: cell-based; settings: for IC50: Homo sapiens, read-out: MKN-45 IC50
[5] = tested on: SMMC-7721 (hepatoma cell); experiment: In vitro anti-tumor cellular activity (MTT), SMMC-7721; assay type: cell-based, human; settings: for IC50: Homo sapiens, read-out: SMMC-7721 IC50
[6] = target: T1, c-Met (His-tagged recombinant human Met (Amino acids 974-ends)) (Homo sapiens, UniProt P08581); experiment: c-Met kinase assay (ELISA); assay type: biochemical; settings: 50 pM c-Met, 5 μM ATP, 20 min
T1 construct: His-tagged recombinant human Met (Amino acids 974-ends); His; host or cells: baculovirus expression
Experimental: c-Met kinase activity was measured with an ELISA reader.
The reaction mixture was removed by washing with 0.2 μg/mL conjugated horseradish peroxidase (HRP) monoclonal antibody specific for phosphotyrosine (PY20) detecting phosphorylation of the substrate polymer. 1M phosphoric acid was added to terminate the color, the chromogenic substrate (TMB) was tested by spectrophotometry at 450 nm.

T1 sequence (P08581 974-1390 limits assumed): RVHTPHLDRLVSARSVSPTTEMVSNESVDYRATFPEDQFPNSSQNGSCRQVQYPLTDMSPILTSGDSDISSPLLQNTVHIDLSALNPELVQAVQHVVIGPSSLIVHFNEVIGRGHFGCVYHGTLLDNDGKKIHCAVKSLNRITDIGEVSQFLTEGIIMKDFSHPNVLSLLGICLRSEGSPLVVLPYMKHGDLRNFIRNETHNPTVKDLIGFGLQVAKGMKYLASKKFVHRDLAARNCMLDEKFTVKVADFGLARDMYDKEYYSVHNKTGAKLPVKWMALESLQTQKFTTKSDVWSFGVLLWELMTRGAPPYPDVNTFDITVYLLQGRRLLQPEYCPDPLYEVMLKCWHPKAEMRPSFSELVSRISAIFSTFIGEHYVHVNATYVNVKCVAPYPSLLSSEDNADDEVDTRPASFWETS

Molecule: COc1cc2c(Oc3ccc(NC(=O)c4cn(-c5ccccc5F)c5ccccc5c4=O)cc3F)ccnc2cc1OCCCN1CCN(C)CC1 [Example 52, N-(3-fluoro-4-((6-methoxy-7-(3-(4-methylpiperazin-1-yl)propoxy)quinolin-4-yl)oxy)phenyl)-1-(2-fluorophenyl)-4-oxo-1,4-dihydroquinoline-3-carboxamide]
- IC50 ([1]; NCI-H460, MTT, 72 hours, H460): 1.4 µg/mL (≈ 1.98 µM)
- IC50 ([2]; MTT, 72 hours, U87MG): 0.87 µg/mL (≈ 1.23 µM)
- IC50 ([3]; MTT, 72 hours, HT-29): 1.1 µg/mL (≈ 1.56 µM)
- IC50 ([4]; MTT, 72 hours, MKN-45): 0.67 µg/mL (≈ 0.949 µM)
- IC50 ([5]; MTT, 72 hours, SMMC-7721): 1.8 µg/mL (≈ 2.55 µM)
- IC50 [6]: 2.27 µM

Molecule: COc1cc2c(Oc3ccc(NC(=O)c4nn(-c5ccc(Cl)cc5Cl)c5ccccc5c4=O)cc3F)ccnc2cc1OCCCN1CCC(C)CC1 [Example 28, N-(3-fluoro-4-((6-methoxy-7-(3-(4-methylpiperidin-1-yl)propoxy)quinolin-4-yl)oxy)phenyl)-1-(2,4-dichlorophenyl)-4-oxo-1,4-dihydrocinnoline-3-carboxamide]
- IC50 ([1]; NCI-H460, 72 h): 2.3 µg/mL (≈ 3.04 µM)
- IC50 ([2]; 72 h): 1.6 µg/mL (≈ 2.11 µM)
- IC50 ([3]; HT-29, 72 h): 0.9 µg/mL (≈ 1.19 µM)
- IC50 ([4]; MKN-45, 72 h): 1.8 µg/mL (≈ 2.38 µM)
- IC50 ([5]; SMMC-7721, 72 h): 1.3 µg/mL (≈ 1.72 µM)
- IC50 [6]: 1.72 µM

Molecule: N-(3-fluoro-4-((6-methoxy-7-(3-(4-methylpiperidin-1-yl)propoxy)quinolin-4-yl)oxy)phenyl)-1-(3,4-difluorophenyl)-4-oxo-1,4-dihydroquinoline-3-carboxamide [Example 58]
- H460 IC50 ([1]; MTT, 72 hours, H460): 1.4 µg/mL
- U87MG IC50 ([2]; MTT, 72 hours, U87MG): 2.1 µg/mL
- HT-29 IC50 ([3]; MTT, 72 hours, HT-29): 0.95 µg/mL
- MKN-45 IC50 ([4]; MTT, 72 hours, MKN-45): 1.8 µg/mL
- SMMC-7721 IC50 ([5]; MTT, 72 hours, SMMC-7721): 1.1 µg/mL
- c-Met IC50 [6]: 0.72 µg/mL

Molecule: COc1cc2c(Oc3ccc(NC(=O)c4nn(-c5ccccc5C(F)(F)F)c5ccccc5c4=O)cc3F)ccnc2cc1OCCCN1CCCC1.Cl.Cl [Example 1, N-(3-fluoro-4-((6-methoxy-7-(3-(pyrrolidin-1-yl)propoxy)quinolin-4-yl)oxy)phenyl)-1-(2-(trifluoromethyl)phenyl)-4-oxo-1,4-dihydrocinnoline-3-carboxamide dihydrochloride]
- IC50 ([1]; NCI-H460, MTT, 72 hours, H460): 0.04 µg/mL
- IC50 ([2]; MTT, 72 hours, U87MG): 0.18 µg/mL
- IC50 ([3]; MTT, 72 hours, HT-29): 0.18 µg/mL
- IC50 ([4]; MTT, 72 hours, MKN-45): 0.27 µg/mL
- IC50 ([5]; MTT, 72 hours, SMMC-7721): 0.57 µg/mL
- IC50 [6]: 0.0625 µM

Molecule: N-(3-fluoro-4-((6-methoxy-7-(3-(piperidin-1-yl)propoxy)quinolin-4-yl)oxy)phenyl)-1-(2-fl uorophenyl)-4-oxo-1,4-dihydrocinnoline-3-carboxamide [Example 7]
- H460 IC50 ([1]; MTT, 72 hours, H460): 1.7 µg/mL
- U87MG IC50 ([2]; MTT, 72 hours, U87MG): 1.5 µg/mL
- HT-29 IC50 ([3]; MTT, 72 hours, HT-29): 0.82 µg/mL
- MKN-45 IC50 ([4]; MTT, 72 hours, MKN-45): 1.4 µg/mL
- SMMC-7721 IC50 ([5]; MTT, 72 hours, SMMC-7721): 0.63 µg/mL
- c-Met IC50 [6]: 0.5 µg/mL

Molecule: COc1cc2c(Oc3ccc(NC(=O)c4nn(-c5ccccc5OC(F)(F)F)c5ccccc5c4=O)cc3F)ccnc2cc1OCCCN1CCCCC1 [Example 38, N-(3-fluoro-4-((6-methoxy-7-(3-(piperidin-1-yl)propoxy)quinolin-4-yl)oxy)phenyl)-1-(2-(trifluoromethoxy)phenyl)-4-oxo-1,4-dihydrocinnoline-3-carboxamide]
- IC50 ([1]; NCI-H460, MTT, 72 hours, H460): 1.6 µg/mL (≈ 2.11 µM)
- IC50 ([2]; MTT, 72 hours, U87MG): 1.1 µg/mL (≈ 1.45 µM)
- IC50 ([3]; MTT, 72 hours, HT-29): 1.8 µg/mL (≈ 2.38 µM)
- IC50 ([4]; MTT, 72 hours, MKN-45): 2.1 µg/mL (≈ 2.77 µM)
- IC50 ([5]; MTT, 72 hours, SMMC-7721): 0.98 µg/mL (≈ 1.29 µM)
- IC50 [6]: 1.45 µM

Molecule: COc1cc2c(Oc3ccc(NC(=O)c4nn(-c5ccc(Cl)cc5Cl)c5ccccc5c4=O)cc3F)ccnc2cc1OCCCN1CCN(C)CC1 [Example 43, N-(3-fluoro-4-((6-methoxy-7-(3-(4-methylpiperazin-1-yl)propoxy)quinolin-4-yl)oxy)phenyl)-1-(2,4-dichlorophenyl)-4-oxo-1,4-dihydrocinnoline-3-carboxamide]
- IC50 ([1]; NCI-H460, 72 h): 0.53 µg/mL (≈ 0.7 µM)
- IC50 ([2]; 72 h): 0.77 µg/mL (≈ 1.02 µM)
- IC50 ([3]; HT-29, 72 h): 1.2 µg/mL (≈ 1.58 µM)
- IC50 ([4]; MKN-45, 72 h): 0.45 µg/mL (≈ 0.594 µM)
- IC50 ([5]; SMMC-7721, 72 h): 1.8 µg/mL (≈ 2.38 µM)
- IC50 [6]: 0.924 µM

Molecule: COc1cc2c(Oc3ccc(NC(=O)c4nn(-c5ccccc5Br)c5ccccc5c4=O)cc3F)ccnc2cc1OCCCN1CCN(C)CC1 [Example 35, N-(3-fluoro-4-((6-methoxy-7-(3-(4-methylpiperazin-1-yl)propoxy)quinolin-4-yl)oxy)phenyl)-1-(2-bromophenyl)-4-oxo-1,4-dihydrocinnoline-3-carboxamide]
- IC50 ([1]; NCI-H460, 72 h): 2.5 µg/mL (≈ 3.26 µM)
- IC50 ([2]; 72 h): 1.3 µg/mL (≈ 1.69 µM)
- IC50 ([3]; HT-29, 72 h): 0.9 µg/mL (≈ 1.17 µM)
- IC50 ([4]; MKN-45, 72 h): 2.1 µg/mL (≈ 2.74 µM)
- IC50 ([5]; SMMC-7721, 72 h): 1.5 µg/mL (≈ 1.95 µM)
- IC50 [6]: 1.43 µM

Molecule: N-(3-fluoro-4-((6-methoxy-7-(3-(4-methylpiperidin-1-yl)propoxy)quinolin-4-yl)oxy)phenyl)-1-(2-chlorophenyl)-4-oxo-1,4-dihydrocinnoline-3-carboxamide dihydrochloride [Example 15]
- H460 IC50 ([1]; MTT, 72 hours, H460): 1 µg/mL
- U87MG IC50 ([2]; MTT, 72 hours, U87MG): 0.2 µg/mL
- HT-29 IC50 ([3]; MTT, 72 hours, HT-29): 0.6 µg/mL
- MKN-45 IC50 ([4]; MTT, 72 hours, MKN-45): 0.8 µg/mL
- SMMC-7721 IC50 ([5]; MTT, 72 hours, SMMC-7721): 1.5 µg/mL
- c-Met IC50 [6]: 0.66 µg/mL

Molecule: COc1cc2c(Oc3ccc(NC(=O)c4nn(-c5ccc(F)cc5Br)c5ccccc5c4=O)cc3F)ccnc2cc1OCCCN1CCN(C)CC1 [Example 19, N-(3-fluoro-4-((6-methoxy-7-(3-(4-methylpiperazin-1-yl)propoxy)quinolin-4-yl)oxy)phenyl)-1-(2-bromo-4-fluorophenyl)-4-oxo-1,4-dihydrocinnoline-3-carboxamide]
- IC50 ([1]; NCI-H460, MTT, 72 hours, H460): 2.2 µg/mL (≈ 2.8 µM)
- IC50 ([2]; MTT, 72 hours, U87MG): 1.2 µg/mL (≈ 1.53 µM)
- IC50 ([3]; MTT, 72 hours, HT-29): 0.54 µg/mL (≈ 0.687 µM)
- IC50 ([4]; MTT, 72 hours, MKN-45): 0.86 µg/mL (≈ 1.09 µM)
- IC50 ([5]; MTT, 72 hours, SMMC-7721): 1.6 µg/mL (≈ 2.04 µM)
- IC50 [6]: 1.53 µM

Molecule: COc1cc2c(Oc3ccc(NC(=O)c4cn(-c5ccccc5F)c5ccccc5c4=O)cc3F)ccnc2cc1OCCCN1CCCCC1 [Example 50, N-(3-fluoro-4-((6-methoxy-7-(3-(piperidin-1-yl)propoxy)quinolin-4-yl)oxy)phenyl)-1-(2-fluorophenyl)-4-oxo-1,4-dihydroquinoline-3-carboxamide]
- IC50 ([1]; NCI-H460, MTT, 72 hours, H460): 0.58 µg/mL (≈ 0.84 µM)
- IC50 ([2]; MTT, 72 hours, U87MG): 0.35 µg/mL (≈ 0.507 µM)
- IC50 ([3]; MTT, 72 hours, HT-29): 0.38 µg/mL (≈ 0.55 µM)
- IC50 ([4]; MTT, 72 hours, MKN-45): 0.45 µg/mL (≈ 0.651 µM)
- IC50 ([5]; MTT, 72 hours, SMMC-7721): 0.87 µg/mL (≈ 1.26 µM)
- IC50 [6]: 0.869 µM

Molecule: COc1cc2c(Oc3ccc(NC(=O)c4nn(-c5ccc(C)cc5C)c5ccccc5c4=O)cc3F)ccnc2cc1OCCCN1CCN(C)CC1 [Example 26, N-(3-fluoro-4-((6-methoxy-7-(3-(4-methylpiperazin-1-yl)propoxy)quinolin-4-yl)oxy)phenyl)-1-(2,4-dimethylphenyl)-4-oxo-1,4-dihydrocimloline-3-carboxamide]
- IC50 ([1]; NCI-H460, MTT, 72 hours, H460): 0.8 µg/mL (≈ 1.12 µM)
- IC50 ([2]; MTT, 72 hours, U87MG): 1.8 µg/mL (≈ 2.51 µM)
- IC50 ([3]; MTT, 72 hours, HT-29): 1.4 µg/mL (≈ 1.95 µM)
- IC50 ([4]; MTT, 72 hours, MKN-45): 0.7 µg/mL (≈ 0.977 µM)
- IC50 ([5]; MTT, 72 hours, SMMC-7721): 1.6 µg/mL (≈ 2.23 µM)
- IC50 [6]: 0.419 µM

Molecule: N-(3-fluoro-4-((6-methoxy-7-(3-(4-methylpiperazin-1-yl)propoxy)quinolin-4-yl)oxy)phenyl)-1-(2-chlorophenyl)-4-oxo-1,4-dihydrocinnoline-3-carboxamide dihydrochloride [Example 17]
- H460 IC50 ([1]; MTT, 72 hours, H460): 1.4 µg/mL
- U87MG IC50 ([2]; MTT, 72 hours, U87MG): 0.9 µg/mL
- HT-29 IC50 ([3]; MTT, 72 hours, HT-29): 1.8 µg/mL
- MKN-45 IC50 ([4]; MTT, 72 hours, MKN-45): 2.1 µg/mL
- SMMC-7721 IC50 ([5]; MTT, 72 hours, SMMC-7721): 0.5 µg/mL
- c-Met IC50 [6]: 0.2 µg/mL

Molecule: COc1cc2c(Oc3ccc(NC(=O)c4cn(-c5ccccc5Cl)c5ccccc5c4=O)cc3F)ccnc2cc1OCCCN1CCC(C)CC1 [Example 54, N-(3-fluoro-4-((6-methoxy-7-(3-(4-methylpiperidin-1-yl)propoxy)quinolin-4-yl)oxy)phenyl)-1-(2-chlorophenyl)-4-oxo-1,4-dihydroquinoline-3-carboxamide]
- IC50 ([1]; NCI-H460, MTT, 72 hours, H460): 0.63 µg/mL (≈ 0.874 µM)
- IC50 ([2]; MTT, 72 hours, U87MG): 0.14 µg/mL (≈ 0.194 µM)
- IC50 ([3]; MTT, 72 hours, HT-29): 0.63 µg/mL (≈ 0.874 µM)
- IC50 ([4]; MTT, 72 hours, MKN-45): 0.49 µg/mL (≈ 0.679 µM)
- IC50 ([5]; MTT, 72 hours, SMMC-7721): 0.52 µg/mL (≈ 0.721 µM)
- IC50 [6]: 0.971 µM
